Reference: US6831080B2, “Cinnamide derivatives as KCNQ potassium channel modulators” (Bristol-Myers Squibb Company, priority 2001, dated 2004)

Experiments:
[1] = molecular target: T1, mKCNQ2 channels (Mus musculus, UniProt Q9Z351); test: Whole-cell patch-clamp, HEK 293 stable cell line expressing mKCNQ2 channels; format: cell-based; conditions: HEK 293 mKCNQ2, Hill fit; for EC50: @ −40 mV
T1 construct: expressed in transfected cells
Experimental: Whole-cell patch-clamp recordings were made from an HEK 293 stable cell line expressing mKCNQ2 channels, maintained in culture for 1-2 days. Patch pipettes had initial resistances of 2.5-4 MΩ. Currents were recorded with an EPC-9 amplifier (HEKA, Lambrecht, Germany) controlled with software (Pulse, HEKA) run on a standard lab PC. Series resistance compensation was used during current recording, and set at 80%. The series resistance (R) and cell capacitance (C) were determined electronically by subtracting the capacitive currents at the onset and offset of a 5 mV voltage step. The cancellation of whole-cell capacitance transients was virtually complete in all cells. Analog current signals were low-pass filtered at 2.9 kHz using a four-pole Bessel filter −3 dB) and stored on a local network server computer at a sampling rate of […]. All recordings were performed at room temperature (20-22° C.). The pipette solution contained (mM): KCl, 150; CaCl2, 2.5; EGTA, 5; MgCl2, 1; HEPES, 10; pH to 7.3 with KOH, and Osmolality of 290-300 mOsm. The extracellular solution contained (mM): NaCl, 140; KCl, 2.5; CaCl2, 2.5; MgCl2, 1; glucose, 10; HEPES, 10; pH to 7.3 with NaOH, and Osmolality of 305-310 mOsm
Concentration response data were generated by measuring the difference in the steady-state amplitude of current in the presence of compound at the end of a 600 ms voltage-clamp step from a holding potential of −80 mV. The concentration-response data were fitted with Hill-type equations: […]
where I is the steady-state current at a given concentration of agonist [A]; and Imax, EC50 and nH are parameters estimated from the curve fit. In some cases the concentration-response data were fitted with equations consisting of the sum of two Hill-type components. Current-voltage (I/V) relationships for agonist-evoked currents were obtained by performing 600 ms voltage steps (−110 mV to +40 mV) in the absence and presence of agonist.

[2] = molecular target: cloned mouse KCNQ2 (mKCNQ2) (Mus musculus, UniProt Q9Z351); test: KCNQ oocyte two-electrode voltage clamp, whole-cell outward current; format: cell-based; conditions: 10 μM; single holding potential (−40 μM [sic]); Xenopus oocytes
cloned mouse KCNQ2 (mKCNQ2), sequence (Q9Z351 whole entry): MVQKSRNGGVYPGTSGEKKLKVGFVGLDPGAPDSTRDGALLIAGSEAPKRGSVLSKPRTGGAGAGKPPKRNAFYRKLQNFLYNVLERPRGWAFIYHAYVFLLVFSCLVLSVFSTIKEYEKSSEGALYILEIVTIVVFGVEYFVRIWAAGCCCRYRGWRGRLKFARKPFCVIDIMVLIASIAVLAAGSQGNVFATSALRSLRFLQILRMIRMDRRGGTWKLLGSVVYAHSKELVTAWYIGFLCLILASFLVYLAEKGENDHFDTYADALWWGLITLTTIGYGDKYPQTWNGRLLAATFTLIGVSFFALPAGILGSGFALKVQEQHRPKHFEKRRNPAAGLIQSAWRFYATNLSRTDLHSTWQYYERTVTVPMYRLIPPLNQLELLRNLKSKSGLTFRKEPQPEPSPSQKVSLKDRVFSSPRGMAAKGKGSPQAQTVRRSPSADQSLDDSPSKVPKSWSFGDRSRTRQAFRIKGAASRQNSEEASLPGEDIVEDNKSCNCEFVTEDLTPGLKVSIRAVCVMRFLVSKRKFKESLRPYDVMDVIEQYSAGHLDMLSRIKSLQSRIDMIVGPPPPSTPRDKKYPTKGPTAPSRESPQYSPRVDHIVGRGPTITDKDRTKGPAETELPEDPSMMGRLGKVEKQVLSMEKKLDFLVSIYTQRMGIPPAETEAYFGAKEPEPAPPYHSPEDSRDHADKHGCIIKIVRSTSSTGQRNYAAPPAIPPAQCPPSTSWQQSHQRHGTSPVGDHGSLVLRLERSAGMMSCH
Experimental: The ability of compounds described in the present invention to open KCNQ channels and increase whole-cell outward (K^+) KCNQ-mediated currents was assessed under voltage-clamp conditions by determining their ability to increase cloned mouse KCNQ2 (mKCNQ2)-mediated, heteromultimeric KCNQ2/3 (mKCNQ2/hKCNQ3)-mediated, and human KCNQ5 (hKCNQ5)-mediated outward currents heterologously expressed in Xenopus oocytes. Oocytes were prepared and injected using standard techniques; each oocyte was injected with approximately 50 nl of mKCNQ2, or hKCNQ5 cRNA. In the case of mKCNQ2/h3 heteromultimeric channel expression, equal amounts (25-50 nL) of each cRNA were co-injected. […] Following injection, oocytes were maintained at 17° in ND96 medium consisting of (in mM): NaCl, 90; KCl, 1.0; CaCl2, 1.0; MgCl2, 1.0; HEPES, 5.0; pH 7.5. Horse serum (5%) and penicillin/streptomycin (5%) were added to the incubation medium. Recording commenced 2-6 days following mRNA injection. Prior to the start of an experiment oocytes were placed in a recording chamber and incubated in Modified Barth's Solution (MBS) consisting of (in mM): NaCl, 88; NaHCO3, 2.4; KCl, 1.0; HEPES, 10; MgSO4, 0.82; Ca(NO3)2, 0.33; CaCl2, 0.41; pH 7.5.
Oocytes were impaled with electrodes (1-2 MΩ) and standard 2-electrode voltage clamp techniques were employed to record whole-cell membrane currents. Recordings were accomplished using standard two-electrode voltage clamp techniques [Stuhmer, W., et al., Methods in Enzymology, Vol. 207: 319-339 (1992)]. Voltage-clamp protocols typically consisted of a series of voltage steps 1-5 sec duration, in +10 mV steps from a holding potential of −90 mV to a maximal potential of +40 mV; records were digitized at 5 kHz and stored on a computer using pClamp data acquisition and analysis software (Axon Instruments). Compounds were evaluated at a single concentration and at a single holding potential (−40 μM); the effect of the selected compounds of Formula I on KCNQ2 current was expressed as the percent of control current and is listed in Table I.

[3] = system: streptozoticin-induced tactile allodynia, Sprague Dawley rats; test: Diabetic model of neuropathic pain (streptozoticin and von Frey test); format: in vivo, rat; conditions: 10 mg/kg, i.v.; von Frey thresholds over 90 min; STZ diabetic model
Experimental: To test agents for activity against systemic polyneuropathy nerve injury-induced tactile allodynia, animals were treated with streptozoticin (STZ) to create a diabetic condition by selective cytotoxic action upon pancreatic β-islet cells that produce insulin following the method of Courteix, et al. (Courteix C., et al., (1993) Pain, April;53(1):81-8). In brief, male Sprague Dawley rats (wt. 200-275 g) received an injection of STZ (75 mg/kg, i.p.) and diabetes was confirmed three weeks after STZ injection by measurement of tail vein blood glucose levels. After 3-4 weeks, paw withdrawal to light touch was assessed as described by Chaplan et al. (Chaplan S. R., et al., (1994) J Neurosci Methods, July;53(1):55-63). In brief, rats are placed in a plastic cage with a wire mesh bottom and allowed to acclimate for 15-30 minutes, until cage exploration and grooming stops. The plantar surface of each hind paw is touched with a series of von Frey hairs with varying stiffness requiring a known force to buckle to determine the nociceptive threshold. Adult male Sprague Dawley rats (avg. wt. 300 g) were tested in the present study. After acclimation, baseline von Frey thresholds were assessed for the injured hindpaw at -15 min. All test compounds were delivered at 0 min by the intravenous (i.v.) route in a volume of 0.5-2 ml/kg. […] Animals were tested in one of the following 4 treatment conditions: […] Following drug administration, von Frey thresholds are measured at 15, 30, 60 and 90 min. Data were analyzed by a 2-way repeated measures analysis of variance followed by Dunnett's test (p<0.05). Experimenters were kept blind to the treatment condition of rats they tested. […] Specifically, drug effects can be described in terms Δ% MPE according to the following equation: {[…] under the curve for von Frey thresholds of the drug-treated group; AUCvehicle=area under the curve for von Frey thresholds in the vehicle group; Time=duration of post-drug testing period (90 min); and Max=maximum von Frey threshold (15 g).

T1 sequence (Q9Z351 whole entry): as above

| Compound | EC50 [1] | Emax ([1]; HEK293, read-out: Imax (%)) | activity at 10 µM [2] | AUC (Δ% MPE) [3] |
| --- | --- | --- | --- | --- |
| C[C@H](NC(=O)/C=C/c1ccc(F)cc1)c1ccc2ccccc2c1 [Example 1, (S)-3-(4-Fluoro-phenyl)-N-(1-naphthalen-2-yl-ethyl)acrylamide] | 9.2 µM | 237% |  |  |
| C[C@H](NC(=O)/C=C/c1ccccc1)c1cccc(N2CCOCC2)c1 [Example 82, (S)-3-Phenyl-N-[1-(3-morpholin-4-yl-phenyl)ethyl]acrylamide] |  |  | 197% | 23 (10 mg/kg, i.v.) Δ% MPE |
| C[C@H](NC(=O)/C=C/c1ccc(F)cc1)c1ccc(F)c(N2CCOCC2)c1 [Example 169, (S)-N-[1-(4-Fluoro-3-morpholin-4-yl-phenyl)-ethyl]-3-(4-fluoro-phenyl)-acrylamide] | 1 µM |  |  | 12 (10 mg/kg, i.v.) Δ% MPE |
